{"source": "patent US10253085B2", "about": "“CD31 peptides for the treatment of thrombotic or autoimmune disorders” (INSERM (INSTITUT NATIONAL DE LA SANTE ET DE LA RECHERCHE …, priority 2008, dated 2019)", "key": {"T-cell activation": {"tested_on": "T-cell activation", "test": "In vitro inhibition of T-cell activation (summary statements)", "assay_type": "cell-based"}, "[1]": {"tested_on": "BALB/c mice primed with TNCB", "test": "Delayed type hypersensitivity (DTH) suppression model", "assay_type": "in vivo, mouse", "settings": "single subcutaneous administration; peptide 10, 50, 100 μM; scramble 100 μM", "protocol": "Delayed type hypersensitivity (DTH) suppression was evaluated as described in the “Current Protocols in Immunology (2001) 4.0.1-4.0.2 Unit 4.2”. Briefly, TNCB (2-chloro-1,3,5-trinitrobenzene, Fluka #79874) was dissolved in acetone/olive oil (1:1 v/v) at a concentration of 10 mg/ml. BALB/c mice (n=6/group) were primed by painting the shaved regions of the abdomen a with a total 0.2 ml of the preparation (n=6/group). The experiment included 3 groups for peptide 551-574 (10, 50, 100 μM) and 1 group treated with scramble peptide at 100 μM). Five days after priming, 10 μl of the TNCB-solvent mixture was painted on the right pinna, 30 minutes after subcutaneous (interscapolar) administration of the peptide 551-574 or the scramble peptide. Ear thickness increases were calculated by subtracting the thickness of the right and the left pinna of each mouse (right-left/left×100), measured at 24 h with a dial caliper (“Pocotest”, Kroeplin Längenmesstechnick). The measure was performed 5 times on each ear and averaged for further analysis. The immunosuppressive effect of the peptide was calculated as % suppression=(1−ΔTE/ΔTS)×100, where ΔT=(ear thickness 24 hr after elicitation)−(baseline ear thickness), […]. Data are expressed as mean±SEM."}, "[2]": {"tested_on": "spleen cells from C57Bl/6 (CD31^+/+) mice", "test": "Proliferation in response to TCR stimulation, CD31+/+ spleen cells", "assay_type": "cell-based, mouse", "settings": "peptide 25, 50, 100 μM; scramble peptide 100 μM", "protocol": "CD8^+ T cell-mediated cytolytic activity against allogeneic mouse aortic smooth muscle cells and measurement of macrophage gelatinase (MMP-2/9) activity were performed as previously described for human cells in Caligiuri et al. (2006 Arterioscler Thromb Vasc Biol 26:618-623) using kits and reagents from Invitrogen. Briefly, primary cultures of FVB/N mouse aorta smooth muscle cells were labelled with the lipophylic tracer DIO (green) and co-cultured for 3 hours with CD8+ T cell-enriched spleen cells from C57Bl/6 mice (n=3 scramble peptide and n=3 peptide 551-574, 50 μM). Cytolysis was evaluated by intracellular accumulation of propidium iodide (PI). Cells were analysed by flow cytometry and the % of cytolysis was calculated by expressing the number of dead (PI+) cells among the target (DIO+) cells. Intracellular MMP-2/9 (gelatinase) activity was measured by flow cytometry in 7-day bone-marrow derived macrophages from C57Bl/6 mice (n=3 scramble peptide and n=3 peptide 551-574, 50 μM) three hours after the incorporation of OregonGreen® gelatine (MFI). T-cell proliferation was performed using either human peripheral blood mononuclear cells of spleen cells from C57Bl/6 (CD31^+/+) and CD31^−/− mice (Charles River France) as previously described (Caligiuri et al. 2005 Arterioscler Thromb Vasc Biol 25:1659-1664). Briefly, cells were plated in triplicates at 0.2×10^6 cells/well in a U bottom 96-well plate in complete medium (RPMI 1640, 1% pyruvate, 1% glutamine, 1% penicillin-streptomicyne-fungizone, 10% decomplemented fetal calf serum, all from Invitrogen) containing 1 μg/ml anti-mouse CD3/CD28 or 5 μg/ml anti-human CD3 antibodies (BD) as appropriate. CD31 (551-574) and scramble peptide at 25, 50 and 100 μM final concentration were deposited in the wells just before cell plating. Plated cells were cultured for 72 hours in 5% CO2 at 37° C. (^3H) thymidine (0.5 μCi/well) was added for the last 16 hours and proliferation evaluated using a Tomtec harvester and analysis on a Wallac micro beta counter. Data are expressed as mean±SEM of cpm in triplicates."}, "T cell proliferation": {"tested_on": "T cell proliferation", "test": "Suppression of T cell proliferation by [H3] thymidin incorporation, long culture", "assay_type": "cell-based, mouse", "settings": "culture at 37° C. in 10% serum"}, "[3]": {"tested_on": "C57BL/6J mice immunized with MOG35-55 peptide", "test": "Experimental Autoimmune Encephalomyelitis (EAE) model", "assay_type": "in vivo, mouse", "protocol": "Twelve-week old female C57BL/6J mice were immunized with 300 μg of MOG35-55 peptide emulsified in Complete Freund's Adjuvant 1:1 by volume containing 800 μg of nonviable desiccated Mycobacterium tuberculosis H37RA. A final volume of 200 μl of the emulsion was injected subcutaneously at 4 sites (50 μl/site) over the flanks. In addition, 300 ng of Pertussis toxin was injected intravenously (retro-orbital plexus) on the same day and 2 days later. Clinical signs of EAE ware assessed daily by the following scoring system: 0, no signs; 1, hindlimb weakness; 2, hindlimb weakness and tail paralysis; 3, hindlimb and tail paralysis; 4, hindlimb and tail paralysis and forelimb weakness; 5, moribund state; and 6, death. The peak (waxing phase) occured around day 21. In this C57BL/6J mouse model, there was no waning phase as assessed in our laboratory up to day 41.\nThe experiment was carried out with ten mice per group. The mice of each group were treating with either of: • PBS; • PepReg (SEQ ID NO: 3); or • PepScra (SEQ ID NO: 14).\nThe dosing was of 50 μg of peptide per mice and per day (i.e. about 2 mg/Kg per day). The peptide was administered by a subcutaneous injection."}, "[4]": {"tested_on": "CD4+ cells from C57Bl6 mice", "test": "CD4+ T cell activation, early activation marker CD69 by flow cytometry", "assay_type": "cell-based, mouse", "settings": "18 hours culture", "protocol": "Alternatively, the T-cell proliferation assay may comprise comparing expression levels of the early activation marker CD69 in T-cells cultured either in the presence or in the absence of the compound to be tested. This assay may for example be performed as follows: • providing purified CD4+ cells (e.g. purified from C57B16 mice); • stimulating said CD4+ cells by addition of anti-CD3 purified antibodies and bone marrow derived dendritic cells; • culturing the cells for about 18 hours; and • analyzing said cells for the expression of the early activation marker CD69, e.g. by flow cytometry; and • comparing CD69 expression in the presence of the compound to be tested.\nThe immunosuppressive properties of PepReg (10aa) vs the 23 aa parent peptide were evaluated in vitro. Negatively purified CD4+ cells from C57Bl6 mice were stimulated by soluble anti-CD3 purified antibodies and bone marrow derived dendritic cells. Cells from triplicate wells were analyzed for the expression of the early activation marker CD69 after 18 hours culture in complete RPMI medium supplemented with 10% fetal calf serum."}, "[5]": {"settings": "associated with disease protection"}}, "note": "Entries after “also recorded” stand apart in the source; their conditions may differ.", "data": [{"substance": "LAPWKK (mouse or human-derived CD31 peptide) [SEQ ID NO: 2]", "values": [{"measurement": "inhibition of T-cell activation", "setting": "T-cell activation", "result": "capable of inhibiting T-cell activation"}]}, {"substance": "NH2 - SMPAVRSRFSATSLVTLKSRWPK -COOH (H-SMPAVRSRFSATSLVTLKSRWPK-OH) [scramble peptide, scramble peptide used as control for the 23-mer, reference compound]", "values": [{"measurement": "suppression of distal recall of a hapten-elicited specific immune response (ear thickness)", "setting": "[1]", "result": "ineffective"}, {"measurement": "proliferation of CD31+/+ spleen cells in response to TCR stimulation", "setting": "[2]", "result": "No effect; also recorded: ineffective"}]}, {"substance": "VRVFLAPWKK (mouse-derived CD31 peptide) [PepReg, ten COOH terminal amino acids of mouse CD31 peptide]", "values": [{"measurement": "persistence of suppression of T cell proliferation", "setting": "T cell proliferation", "result": "up to 7 days"}, {"measurement": "inhibition of T-cell activation", "setting": "T-cell activation", "result": "capable of inhibiting T-cell activation"}, {"measurement": "infiltration of IL17+ and IFNg+ T helper CD4+ cells in the central nervous system", "setting": "[3]; [5]", "result": "reduced infiltration"}, {"measurement": "proportion of regulatory CD25+/foxP3 CD4+ cells in the central nervous system", "setting": "[3]; [5]", "result": "increased proportion"}, {"measurement": "clinical score of EAE activity (paralysis level)", "setting": "[3]; plateau phase (Days 21 through to 35), 50 μg per mice per day subcutaneous", "result": "reducing disease extension"}, {"measurement": "clinical score of EAE activity (paralysis level)", "setting": "[3]; waxing phase (Day 15), 50 μg per mice per day subcutaneous", "result": "arresting disease development"}, {"measurement": "dose at which suppression of CD69 expression was observed", "setting": "[4]", "result": 50, "unit": "µg/mL"}, {"measurement": "suppression of T cell activation (percentage of CD4 cells expressing CD69)", "setting": "[4]; anti-CD3 and dendritic cells", "result": "at least as efficient as the 23aa peptide"}]}, {"substance": "scrambled peptide: scramble peptide of SEQ ID NO: 14 used as control for PepReg; sequence not printed (WPKLRKFVAV; scramble peptide) [reference compound]", "values": [{"measurement": "beneficial effect in EAE model", "setting": "[3]; 50 μg per mice per day subcutaneous", "result": "beneficial, although less than PepReg"}]}]}
